Laboratory results as given in ChEMBL document CHEMBL1201862, “PubChem BioAssay data set” (2004).
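Method: 48-hour compound exposure of cells in 96-well plates, five concentrations, linear interpolation of endpoints. The concentration for 50% growth inhibition is given as GI50.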 Calls of active or inactive are those of the source. No stated cut-off is given here; in the data, active = GI50 up to about 1.1 µM and inactive = higher.

Tests used:
Experiment in all cases: growth of human tumour cells (NCI), 48 h
[1] = tested on: SN12C
[2] = tested on: HCC 2998
[3] = tested on: CCRF-CEM
[4] = tested on: COLO 205
[5] = tested on: NCI-H23
[6] = tested on: SNB-19
[7] = tested on: OVCAR-4
[8] = tested on: UACC-257
[9] = tested on: M19-MEL
[10] = tested on: U-251
[11] = tested on: OVCAR-5
[12] = tested on: SF-295
[13] = tested on: HOP-92
[14] = tested on: KM12
[15] = tested on: SK-MEL-2
[16] = tested on: M14
[17] = tested on: HT-29
[18] = tested on: OVCAR-3
[19] = tested on: OVCAR-8
[20] = tested on: DLD-1
[21] = tested on: EKVX
[22] = tested on: NCI-H226
[23] = tested on: SF-268
[24] = tested on: SW-620
[25] = tested on: ACHN
[26] = tested on: CAKI-1
[27] = tested on: DMS-273
[28] = tested on: HCT-116
[29] = tested on: DMS-114
[30] = tested on: KM-20L2
[31] = tested on: LOX IMVI
[32] = tested on: NCI-H522
[33] = tested on: NCI-H460
[34] = tested on: IGROV-1
[35] = tested on: SF-539
[36] = tested on: SK-OV-3
[37] = tested on: SK-MEL-28
[38] = tested on: HCT-15
[39] = tested on: SNB-75
[40] = tested on: K562
[41] = tested on: UACC-62
[42] = tested on: TK-10
[43] = tested on: UO-31
[44] = tested on: 786-0
[45] = tested on: XF498
[46] = tested on: MOLT-4
[47] = tested on: RXF 393
[48] = tested on: RXF 631
[49] = tested on: Malme-3M
[50] = tested on: LXFL 529
[51] = tested on: A549
[52] = tested on: HOP-62
[53] = tested on: SNB-78
[54] = tested on: HL-60
[55] = tested on: SK-MEL-5
[56] = tested on: SR
[57] = tested on: A498
[58] = tested on: RPMI-8226

Cc1ccc(S(=O)(=O)C2CC2(Cl)Cl)cc1 (stereo not drawn)
GI50 [1]: 18.7 µM (inactive)
GI50 [2]: 44.4 µM (inactive)
GI50 [3]: 11.1 µM (inactive)
GI50 [4]: 21.6 µM (inactive)
GI50 [5]: 24.7 µM (inactive)
GI50 [6]: > 100 µM (inactive)
GI50 [7]: 0.0162 µM (active)
GI50 [8]: 21.2 µM (inactive)
GI50 [9]: 25.1 µM (inactive)
GI50 [10]: > 100 µM (inactive)
GI50 [11]: > 100 µM (inactive)
GI50 [12]: 38.6 µM (inactive)
GI50 [13]: 26 µM (inactive)
GI50 [14]: 66.2 µM (inactive)
GI50 [15]: 33.2 µM (inactive)
GI50 [16]: 14.7 µM (inactive)
GI50 [17]: 18.8 µM (inactive)
GI50 [18]: 19.9 µM (inactive)
GI50 [19]: 20.9 µM (inactive)
GI50 [20]: 24.2 µM (inactive)
GI50 [21]: > 100 µM (inactive)
GI50 [22]: > 100 µM (inactive)
GI50 [23]: 34 µM (inactive)
GI50 [24]: 22.3 µM (inactive)
GI50 [25]: 25.6 µM (inactive)
GI50 [26]: 26.6 µM (inactive)
GI50 [27]: 32.5 µM (inactive)
GI50 [28]: 20.4 µM (inactive)
GI50 [29]: 19.7 µM (inactive)
GI50 [30]: > 100 µM (inactive)
GI50 [31]: 15.9 µM (inactive)
GI50 [32]: 12.5 µM (inactive)
GI50 [33]: 50.1 µM (inactive)
GI50 [34]: 26.9 µM (inactive)
GI50 [35]: 31.4 µM (inactive)
GI50 [36]: > 100 µM (inactive)
GI50 [37]: 53.1 µM (inactive)
GI50 [38]: 23.4 µM
GI50 [39]: 55.7 µM (inactive)
GI50 [40]: 26.5 µM (inactive)
GI50 [41]: 27.4 µM (inactive)
GI50 [42]: > 100 µM (inactive)
GI50 [43]: 22 µM (inactive)
GI50 [44]: 20.7 µM (inactive)
GI50 [45]: 21.2 µM (inactive)
GI50 [46]: 13.9 µM (inactive)
GI50 [47]: 15.1 µM (inactive)
GI50 [48]: 20.9 µM (inactive)
GI50 [49]: 19.6 µM (inactive)
GI50 [50]: 18.9 µM (inactive)
GI50 [51]: > 100 µM (inactive)

CN(C)c1ccc2c(NCCCCCCNc3ccnc4cc(N(C)C)ccc34)ccnc2c1
GI50 [52]: 19.2 µM (inactive)
GI50 [53]: 4.79 µM (inactive)
GI50 [1]: 6.79 µM (inactive)
GI50 [2]: 15.7 µM (inactive)
GI50 [3]: 12.7 µM (inactive)
GI50 [5]: 10.1 µM (inactive)
GI50 [6]: 0.605 µM (active)
GI50 [7]: 11.9 µM (inactive)
GI50 [8]: 14.9 µM (inactive)
GI50 [9]: 13.7 µM (inactive)
GI50 [10]: 5.32 µM (inactive)
GI50 [54]: 6.7 µM (inactive)
GI50 [11]: 25.2 µM (inactive)
GI50 [12]: 10.7 µM (inactive)
GI50 [55]: 12.2 µM (inactive)
GI50 [14]: 8.26 µM (inactive)
GI50 [15]: 20.2 µM (inactive)
GI50 [16]: 22.6 µM (inactive)
GI50 [17]: 19.2 µM (inactive)
GI50 [18]: 13.7 µM (inactive)
GI50 [19]: 7.29 µM (inactive)
GI50 [20]: 43.7 µM (inactive)
GI50 [21]: 36.1 µM (inactive)
GI50 [56]: 7.73 µM (inactive)
GI50 [23]: 28 µM (inactive)
GI50 [24]: 23.3 µM (inactive)
GI50 [25]: 16.2 µM (inactive)
GI50 [26]: 42.6 µM (inactive)
GI50 [27]: 4.03 µM (inactive)
GI50 [28]: 6.55 µM (inactive)
GI50 [29]: 6.75 µM (inactive)
GI50 [32]: 6.75 µM (inactive)
GI50 [33]: 6.75 µM (inactive)
GI50 [57]: 35.1 µM (inactive)
GI50 [35]: 21.5 µM (inactive)
GI50 [36]: > 100 µM (inactive)
GI50 [37]: 14.3 µM (inactive)
GI50 [38]: > 100 µM
GI50 [40]: 2.74 µM (inactive)
GI50 [41]: > 100 µM (inactive)
GI50 [42]: 12.5 µM (inactive)
GI50 [43]: 32.3 µM (inactive)
GI50 [44]: 20.8 µM (inactive)
GI50 [45]: 2.79 µM (inactive)
GI50 [46]: 6 µM (inactive)
GI50 [47]: 16 µM (inactive)
GI50 [48]: 51.4 µM (inactive)
GI50 [49]: 2.85 µM (inactive)
GI50 [51]: > 100 µM (inactive)

O=NN(CC1(O)OCC(O)C(O)C1O)C(Cc1c[nH]c2ccccc12)C(=O)O (stereo not drawn)
GI50 [52]: > 100 µM (inactive)
GI50 [53]: > 100 µM (inactive)
GI50 [2]: > 100 µM (inactive)
GI50 [3]: > 100 µM (inactive)
GI50 [4]: > 100 µM (inactive)
GI50 [5]: > 100 µM (inactive)
GI50 [8]: > 100 µM (inactive)
GI50 [9]: > 100 µM (inactive)
GI50 [10]: > 100 µM (inactive)
GI50 [54]: > 100 µM (inactive)
GI50 [11]: > 100 µM (inactive)
GI50 [13]: > 100 µM (inactive)
GI50 [55]: > 100 µM (inactive)
GI50 [14]: > 100 µM (inactive)
GI50 [15]: > 100 µM (inactive)
GI50 [16]: > 100 µM (inactive)
GI50 [17]: > 100 µM (inactive)
GI50 [18]: > 100 µM (inactive)
GI50 [19]: > 100 µM (inactive)
GI50 [20]: > 100 µM (inactive)
GI50 [21]: > 100 µM (inactive)
GI50 [58]: > 100 µM (inactive)
GI50 [24]: > 100 µM (inactive)
GI50 [25]: > 100 µM (inactive)
GI50 [27]: > 100 µM (inactive)
GI50 [28]: > 100 µM (inactive)
GI50 [29]: > 100 µM (inactive)
GI50 [30]: > 100 µM (inactive)
GI50 [31]: > 100 µM (inactive)
GI50 [32]: > 100 µM (inactive)
GI50 [33]: > 100 µM (inactive)
GI50 [34]: > 100 µM (inactive)
GI50 [57]: > 100 µM (inactive)
GI50 [35]: > 100 µM (inactive)
GI50 [36]: > 100 µM (inactive)
GI50 [37]: > 100 µM (inactive)
GI50 [39]: > 100 µM (inactive)
GI50 [40]: > 100 µM (inactive)
GI50 [41]: > 100 µM (inactive)
GI50 [42]: > 100 µM (inactive)
GI50 [43]: > 10 µM (inactive)
GI50 [44]: > 100 µM (inactive)
GI50 [45]: > 100 µM (inactive)
GI50 [46]: > 100 µM (inactive)
GI50 [47]: > 100 µM (inactive)
GI50 [48]: > 100 µM (inactive)
GI50 [49]: > 100 µM (inactive)
GI50 [51]: > 100 µM (inactive)
